Source: patent publication US4322348A, “Maytansinoids” (Takeda Chemical Industries, Ltd., priority 1979, dated 1982)
Values after ≈ are worked out from the molar mass of the structure shown.

Tests used:
solubility = format: physicochemical
[1] = acute toxicity test in mice; format: in vivo; conditions: intraperitoneal
[2] = tested on: Hamigera avellanea IFO 7721; experiment: growth inhibition, paper disc method, agar plate; format: cell-based; conditions: IFO7721, 8 mm disc, 0.02 ml of a 100 μg/ml solution, pH 7.0, read-out: inhibitory zones
Experimental: Also, the compounds are assayed by the paper disc method using an agar plate [3.5 g of disodiumhydrogen phosphate, 0.5 g of potassium dihydrogen phosphate, 5 g of yeast extract (manufactured by Difco Co.), 10 g of glucose, 15 g of agar, 1000 ml of distilled water, pH 7.0] as a medium for assay and Hamigera avellanea IFO 7721 as a test organism. Thus, the growth inhibitory activity is determined on the plate medium containing the test organism using a paper disc (Toyo Seisakusho Co. Japan, thin type, 8 mm in diameter) impregnated with 0.02 ml of a 100 μg/ml solution of C-15003PND-1, PND-2, PND-3 or PND-4. As a result, C-15003PND-1, PND-2, PND-3 and PND-4 show inhibitory zones of 28 mm, 30 mm, 34 mm and 36 mm, respectively.

Pseudomonas aeruginosa = experiment: growth inhibition, paper disc method, trypticase soy agar; format: cell-based; conditions: 8 mm disc, 0.02 ml of a 300 μg/ml solution
Experimental: (§1) The growth inhibitory activity of the compounds against the test organisms is assayed by the paper disc method using a trypticase soy agar (manufactured by Baltimore Biologicals Laboratories, U.S.A.) as the assay medium. That is, the growth inhibitory activity is determined on the plate medium containing the following test organisms using a paper disc (manufactured by Toyo Seisakusho Co. Ltd., thin type, 8 mm in diameter) impregnated with 0.02 ml of a 300 μg/ml solution of C-15003PND-1, PND-2, PND-3 or PND-4.

Klebsiella pneumoniae = experiment: as above; format: cell-based; conditions: 8 mm disc, 0.02 ml of a 300 μg/ml solution
Experimental: as §1

Escherichia coli = experiment: as above; format: cell-based; conditions: 8 mm disc, 0.02 ml of a 300 μg/ml solution
Experimental: as §1

Bacillus subtillis = experiment: as above; format: cell-based; conditions: 8 mm disc, 0.02 ml of a 300 μg/ml solution
Experimental: as §1

Proteus vulgaris = experiment: as above; format: cell-based; conditions: 8 mm disc, 0.02 ml of a 300 μg/ml solution
Experimental: as §1

Bacillus cereus = experiment: as above; format: cell-based; conditions: 8 mm disc, 0.02 ml of a 300 μg/ml solution
Experimental: as §1

Serratia marcescens = experiment: as above; format: cell-based; conditions: 8 mm disc, 0.02 ml of a 300 μg/ml solution
Experimental: as §1

Proteus mirabilis = experiment: as above; format: cell-based; conditions: 8 mm disc, 0.02 ml of a 300 μg/ml solution
Experimental: as §1

Mycobacterium avium = experiment: as above; format: cell-based; conditions: 8 mm disc, 0.02 ml of a 300 μg/ml solution
Experimental: as §1

Staphylococcus aureus = experiment: as above; format: cell-based; conditions: 8 mm disc, 0.02 ml of a 300 μg/ml solution
Experimental: as §1

[3] = tested on: tumor cells leukemia P388; experiment: antitumor activity, therapeutic effect on leukemia P388 in mice; format: in vivo; conditions: 1×10^6 cells/mouse i.p.; compound i.p. for 9 consecutive days
Experimental: The therapeutic effects of C-15003PND-1, PND-2, PND-3 and PND-4 on tumor cells leukemia P388 (1×10^6 cells/mouse, transplanted intraperitoneally) are determined by administering the compound intraperitoneally for 9 consecutive days.

Tetrahymena pyriformis W = experiment: growth inhibition, liquid dilution method; format: cell-based; conditions: 28° C., 44 to 48 hours, pH 7.0, read-out: concentration at which the growth of the test organism is inhibited
Experimental: Further, the growth inhibitory activity of these antibiotics is determined by the liquid dilution method using a medium [20 g of proteose peptone (Difco Co.), 1 g of yeast extract, 2 g of glucose, 1000 ml of distilled water, 10 ml of 1 M phosphate buffer pH 7.0] and Tetrahymena pyriformis W as a test organism with incubation at 28° C. for 44 to 48 hours. As a result, the growth of the above test organism is found to be inhibited at a concentration of 8 μg/ml of C-15003PND-1, 4 μg/ml of C-15003PND-2, 2 μg/ml of C-15003PND-3 and 1 μg/ml of C-15003PND-4.

[4] = in petroleum ether, n-hexane, water
[5] = in chloroform, ethyl acetate, acetone, ethanol, methanol, pyridine, tetrahydrofuran, dimethyl sulfoxide

Structure (SMILES)	Solubility (solubility; in chloroform, ethyl acetate, acetone, ethanol, pyridine, tetrahydrofuran, dimethyl sulfoxide)	Solubility (solubility; [4])	estimated LD0 [1]	estimated LD100 [1]	zone of inhibition at 100 µg/mL [2]	Solubility (solubility; [5])	growth inhibitory activity (Pseudomonas aeruginosa)	growth inhibitory activity (Klebsiella pneumoniae)	growth inhibitory activity (Escherichia coli)	growth inhibitory activity (Bacillus subtillis)	growth inhibitory activity (Proteus vulgaris)	growth inhibitory activity (Bacillus cereus)	growth inhibitory activity (Serratia marcescens)	growth inhibitory activity (Proteus mirabilis)	growth inhibitory activity (Mycobacterium avium)	growth inhibitory activity (Staphylococcus aureus)	life-prolonging effect [3]	MIC (Tetrahymena pyriformis W)
COc1cc2cc(c1Cl)NC(=O)CC(O)C1(C)OC1C(C)C1CC(O)(NC(=O)O1)C(OC)C=CC=C(C)C2 (stereo not shown) [C-15003PND-0]	Soluble	Insoluble																
COc1cc2cc(c1Cl)NC(=O)CC(OC(C)=O)C1(C)OC1C(C)C1CC(O)(NC(=O)O1)C(OC)C=CC=C(C)C2 (stereo not shown) [C-15003PND-1]		Insoluble	0.313 mg/kg	2.5 mg/kg	28 mm	Soluble	do not show any activity	do not show any activity	do not show any activity	do not show any activity	do not show any activity	do not show any activity	do not show any activity	do not show any activity	do not show any activity	do not show any activity	a life-prolonging effect	8 µg/mL (≈ 13.5 µM)
CCC(=O)OC1CC(=O)Nc2cc(cc(OC)c2Cl)CC(C)=CC=CC(OC)C2(O)CC(OC(=O)N2)C(C)C2OC12C (stereo not shown) [C-15003PND-2]		Insoluble	0.313 mg/kg	2.5 mg/kg	30 mm	Soluble	do not show any activity	do not show any activity	do not show any activity	do not show any activity	do not show any activity	do not show any activity	do not show any activity	do not show any activity	do not show any activity	do not show any activity	a life-prolonging effect	4 µg/mL (≈ 6.59 µM)
COc1cc2cc(c1Cl)NC(=O)CC(OC(=O)C(C)C)C1(C)OC1C(C)C1CC(O)(NC(=O)O1)C(OC)C=CC=C(C)C2 (stereo not shown) [C-15003PND-3]		Insoluble	0.313 mg/kg	2.5 mg/kg	34 mm	Soluble	do not show any activity	do not show any activity	do not show any activity	do not show any activity	do not show any activity	do not show any activity	do not show any activity	do not show any activity	do not show any activity	do not show any activity	a life-prolonging effect	2 µg/mL (≈ 3.22 µM)
COc1cc2cc(c1Cl)NC(=O)CC(OC(=O)CC(C)C)C1(C)OC1C(C)C1CC(O)(NC(=O)O1)C(OC)C=CC=C(C)C2 (stereo not shown) [C-15003PND-4]		Insoluble	0.313 mg/kg	2.5 mg/kg	36 mm	Soluble	do not show any activity	do not show any activity	do not show any activity	do not show any activity	do not show any activity	do not show any activity	do not show any activity	do not show any activity	do not show any activity	do not show any activity	a life-prolonging effect	1 µg/mL (≈ 1.57 µM)
